Ki and EC50 data for 14 compounds are collected here from ChEMBL document CHEMBL1135592, “Structural determinants of A(3) adenosine receptor activation: nucleoside ligands at the agonist/antagonist boundary” (J Med Chem, 2002).

Test [1] concerns the target T1, Adenosine receptor A3 (Homo sapiens, UniProt P0DMS8).
T1 sequence (P0DMS8 whole entry): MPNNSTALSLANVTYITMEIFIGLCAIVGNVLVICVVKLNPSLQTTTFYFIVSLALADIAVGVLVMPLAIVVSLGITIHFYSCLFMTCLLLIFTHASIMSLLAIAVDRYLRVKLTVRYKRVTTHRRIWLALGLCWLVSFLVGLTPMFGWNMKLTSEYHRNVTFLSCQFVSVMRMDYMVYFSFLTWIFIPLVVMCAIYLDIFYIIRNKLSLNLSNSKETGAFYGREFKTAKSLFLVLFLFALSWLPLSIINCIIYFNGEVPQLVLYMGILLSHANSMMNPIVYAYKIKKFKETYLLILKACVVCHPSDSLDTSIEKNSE
Kind of test: Binding affinity towards human Adenosine A3 receptor wild type.

Test [2] concerns the target Adenosine receptor A3 (Homo sapiens, UniProt P0DMS8). The test can be described thus: Binding affinity towards Adenosine A3 receptor (W243 mutant receptor).
For test [3], the target named is T2, Adenosine receptor A3 (Rattus norvegicus, UniProt P28647).
T2 sequence (P28647 whole entry): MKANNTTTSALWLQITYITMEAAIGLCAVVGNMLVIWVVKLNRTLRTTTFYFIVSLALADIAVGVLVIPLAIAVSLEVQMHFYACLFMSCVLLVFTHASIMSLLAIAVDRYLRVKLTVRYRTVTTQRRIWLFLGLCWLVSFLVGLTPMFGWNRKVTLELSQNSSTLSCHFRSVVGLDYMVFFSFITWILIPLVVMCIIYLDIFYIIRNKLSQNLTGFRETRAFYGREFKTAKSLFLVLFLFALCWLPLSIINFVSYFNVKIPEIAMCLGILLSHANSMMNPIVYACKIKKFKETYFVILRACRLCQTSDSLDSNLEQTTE
Kind of test: Binding affinity of adenosine derivative for endogenous rat Adenosine A3 receptor of RBL-2H3.

The target of test [4] is T2, Adenosine receptor A3. Kind of test: Binding affinity of adenosine derivative for recombinant rat Adenosine A3 receptor expressed on CHO cell.
Test [5] has as its target T1, Adenosine receptor A3. The test can be described thus: Effect on forskolin-stimulated cyclic AMP production in intact chinese hamster ovary (CHO) cell expressing the human Adenosine A3 receptor. In kind it is functional.
In test [6] the target is T1, Adenosine receptor A3. The test can be described thus: Affinity for human Adenosine A3 receptor expressed in CHO cell. It counts as cell-based.
Test [7] deals with Adenosine receptor A3 (Homo sapiens, UniProt P0DMS8, H95A). The test can be described thus: Binding affinity towards Adenosine A3 receptor (H95A mutant receptor).
In test [8] the target is Adenosine receptor A3 (Homo sapiens, UniProt P0DMS8, W243A). Kind of test: Binding affinity towards Adenosine A3 receptor (W243 A mutant receptor).
In test [9] the target is T1, Adenosine receptor A3. Kind of test: biochemical.
Description: Bnding affinity in membrane of CHO cell stably expressing recombinant human Adenosine A3 receptor using [3H]8-ethyl-4-methyl-2-phenyl-(8R)-4,5,7,8-tetrahydro-1H-imidazo[2,1-i]-purin-5-one as radioligand
The target of test [10] is T1, Adenosine receptor A3. The test can be described thus: biochemical. This is another data set of the same source.
Description: Binding affinity in membrane of CHO cell stably expressing recombinant human Adenosine A3 receptor in the presence of GTPgammaS using [3H]8-ethyl-4-methyl-2-phenyl-(8R)-4,5,7,8-tetrahydro-1H-imidazo[2,1-i]-purin-5-one as radioligand
Test [11] concerns the target T1, Adenosine receptor A3. The test can be described thus: Affinity towards human Adenosine A3 receptor in CHO cell. It counts as cell-based.

Sequence of Adenosine receptor A3 (Homo sapiens, UniProt P0DMS8, H95A) (P0DMS8 whole entry H95A): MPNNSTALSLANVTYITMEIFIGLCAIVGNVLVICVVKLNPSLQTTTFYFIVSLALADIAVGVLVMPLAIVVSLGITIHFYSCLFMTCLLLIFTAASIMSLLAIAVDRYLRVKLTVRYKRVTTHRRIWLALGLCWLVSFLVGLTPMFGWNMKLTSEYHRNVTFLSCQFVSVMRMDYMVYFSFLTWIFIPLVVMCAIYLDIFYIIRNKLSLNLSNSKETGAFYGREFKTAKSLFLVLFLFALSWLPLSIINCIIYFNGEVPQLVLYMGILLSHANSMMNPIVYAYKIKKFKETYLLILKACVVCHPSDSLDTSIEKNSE
Sequence of Adenosine receptor A3 (Homo sapiens, UniProt P0DMS8, W243A) (P0DMS8 whole entry W243A): as the sequence (P0DMS8 whole entry H95A) above, with A95H, W243A counted along it

Turning to `CCCOC(=O)c1c(-c2ccccc2)nc(CC)c(C(=O)SCC)c1CCC`, the Ki (commonly the dissociation constant of the complex between target and ligand, obtained from inhibition or displacement) in [1] is 238 nM; in test [2], 2150 nM; in test [3] it was 357 nM; in [4] it was 234 nM.
As for `CCCCn1c(=O)c2c(ncn2[C@@H]2O[C@H](C(=O)NC)[C@@H](O)[C@H]2O)n(CCCC)c1=O`, a half-maximal response in test [5] (EC50) required 828 nM. Also, the affinity in test [6] corresponds to a Ki of 816 nM.
For the compound `OCC12CC1C(n1cnc3c(NCc4cccc(I)c4)ncnc31)C(O)C2O` (configuration not stated), the inhibition constant (Ki) in test [1] was 3.9 nM; in test [6], 9.2 nM; in test [7] it was 99 nM; in test [8], 2.7 nM.
With `CNC(=O)C12CC1C(n1cnc3c(NCc4cccc(I)c4)ncnc31)C(O)C2O` (configuration not stated), the midpoint of the response in [5], the EC50, lay at 5.4 nM. Besides, the figures for the Ki in test [1], in test [6] and in test [8] were 2.1 nM, 1.3 nM and 1.2 nM, respectively.
`Nc1nc(Cl)nc2c1ncn2[C@@H]1O[C@H](CO)[C@@H](O)[C@H]1O`: in test [5], the EC50 (commonly the concentration that produces a half-maximal response) came out at 1630 nM. This compound yielded a Ki in [6] of 87 nM.
For `Nc1nc(F)nc2c1ncn2[C@@H]1O[C@H](CO)[C@@H](O)[C@H]1O` the same measures were 2660 nM and 99 nM.
For the compound `OC[C@H]1O[C@@H](n2cnc3c(NCc4cccc(I)c4)nc(Cl)nc32)[C@H](O)[C@@H]1O`, the Ki in [3] stood at 2.7 nM; in [4], 1.6 nM.
Take `Nc1nc(Cl)nc2c1ncn2C1C(O)C(O)C2(CO)CC12` (configuration not stated): the results for the Ki in test [1] and in test [8] were 83 nM and 46 nM, respectively.
`OCC12CC1C(n1cnc3c(NCc4cccc(I)c4)nc(Cl)nc31)C(O)C2O` (configuration not stated): the Ki in test [9] came to 2.7 nM; in test [1], 1.7 nM; in test [6], 1.9 nM; in [7], 460 nM; in test [2], 1.3 nM; in test [3] it was 2.9 nM. The figures for the Ki in [10] and in test [4] were 4 nM and 1.3 nM, respectively.
Take `OCC12CC1C(n1cnc3c(NCc4cccc(I)c4)nc(Cl)nc31)C1OC12` (configuration not stated): the Ki came to 584 nM in test [1], 572 nM in test [6] and 490 nM in [8].
As for `O=C1NCC[C@@]12O[C@@H](n1cnc3c(NCc4cccc(I)c4)ncnc31)[C@H](O)[C@@H]2O`, the Ki in [3] stood at 51 nM; in [4], 49 nM.
On to `CNC(=O)[C@H]1O[C@@H](n2cnc3c(NCc4cccc(I)c4)nc(Cl)nc32)[C@@H]2O[C@@H]21`, for which, in test [11], the Ki was 1100 nM.
`CNC(=O)C12CC1C(n1cnc3c(NC)nc(Cl)nc31)C(O)C2O` (configuration not stated): the EC50 in test [5] is 1.4 nM. The compound further showed a Ki in test [6] of 3.4 nM.
The compound `OC[C@H]1O[C@@H](n2cnc3c(NC4CCCC4)ncnc32)[C@H](O)[C@@H]1O` [N6-CYCLOPENTYLADENOSINE] registered an EC50 in [5] of 242 nM. Further, the figures for the Ki in test [1], in test [7] and in [8] were 142 nM, 615 nM and 137 nM, respectively.
